Assay results taken from US9113629B2, “4-amino-6-(4-substituted-phenyl)-picolinates and 6-amino-2-(4-substituted-phenyl)-pyrimidine-4-carboxylates and their use as herbicides” (DOW AGROSCIENCES LLC, priority 2013, dated 2015).

System: LAMSS
Test: Post-emergent Test III, herbicidal activity in wheat and barley
Assay type: in vivo
Conditions: Table 8; dose for 50 percent growth reduction, probit analysis; 21 d
Outline: (§1)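 Plants at the second to third true-leaf stage, grown in a greenhouse at about 18/17 °C with a 14 h photoperiod, were sprayed post-emergence at 187 L/ha with the high rate and ½× to 1/16× serial dilutions in an acetone/DMSO/crop-oil/surfactant carrier. Injury was rated visually at 21 d on a 0–100% scale, and GR20–GR90 were derived by probit analysis.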

Row | Compound | GR50 LAMSS [g ai/ha]
1 | Nc1cc(-c2cc(F)c(Br)cc2F)nc(C(=O)O)c1Cl [Compound 3] | 1
2 | COC(=O)c1nc(-c2ccc(I)c(F)c2)nc(N)c1OC [Compound 27, Methyl 6-amino-2-(3-fluoro-4-iodophenyl)-5-methoxypyrimidine-4-carboxylate] | 1
3 | COc1c(N)nc(-c2ccc(I)c(F)c2)nc1C(=O)O [Compound 37, 6-Amino-2-(3-fluoro-4-iodophenyl)-5-methoxypyrimidine-4-carboxylic acid] | 1
4 | Nc1c(Cl)c(C(=O)O)nc(-c2ccc(Br)c(F)c2)c1Cl [Compound 43, 4-Amino-6-(4-bromo-3-fluorophenyl)-3,5-dichloropicolinic acid] | 1
5 | COC(=O)c1nc(-c2ccc(I)c(F)c2)c(C)c(N)c1Cl [Compound 79, Methyl 4-amino-3-chloro-6-(3-fluoro-4-iodophenyl)-5-methylpicolinate] | 27
6 | Nc1cc(-c2ccc(I)cc2F)nc(C(=O)O)c1Cl [Compound 124] | 1
7 | COC(=O)c1nc(-c2ccc(C#N)c(F)c2)c(F)c(N)c1Cl [Compound 135, methyl 4-amino-3-chloro-6-(4-cyano-3-fluorophenyl)-5-fluoropicolinate] | 1
8 | Nc1c(Cl)c(C(=O)O)nc(-c2ccc(I)c(F)c2)c1Cl [Compound 145, 4-Amino-3,5-dichloro-6-(3-fluoro-4-iodophenyl)picolinic acid] | 4

Same assay, conditions: Table 8; dose for 80 percent growth reduction, probit analysis; 21 d

Row | Compound | GR80 LAMSS [g ai/ha]
9 | Nc1cc(-c2cc(F)c(Br)cc2F)nc(C(=O)O)c1Cl [Compound 3] | 1
10 | COC(=O)c1nc(-c2ccc(I)c(F)c2)nc(N)c1OC [Compound 27, Methyl 6-amino-2-(3-fluoro-4-iodophenyl)-5-methoxypyrimidine-4-carboxylate] | 14
11 | COc1c(N)nc(-c2ccc(I)c(F)c2)nc1C(=O)O [Compound 37, 6-Amino-2-(3-fluoro-4-iodophenyl)-5-methoxypyrimidine-4-carboxylic acid] | 11
12 | Nc1c(Cl)c(C(=O)O)nc(-c2ccc(Br)c(F)c2)c1Cl [Compound 43, 4-Amino-6-(4-bromo-3-fluorophenyl)-3,5-dichloropicolinic acid] | 10
13 | COC(=O)c1nc(-c2ccc(I)c(F)c2)c(C)c(N)c1Cl [Compound 79, Methyl 4-amino-3-chloro-6-(3-fluoro-4-iodophenyl)-5-methylpicolinate] | 72
14 | Nc1cc(-c2ccc(I)cc2F)nc(C(=O)O)c1Cl [Compound 124] | 1
15 | COC(=O)c1nc(-c2ccc(C#N)c(F)c2)c(F)c(N)c1Cl [Compound 135, methyl 4-amino-3-chloro-6-(4-cyano-3-fluorophenyl)-5-fluoropicolinate] | 19
16 | Nc1c(Cl)c(C(=O)O)nc(-c2ccc(I)c(F)c2)c1Cl [Compound 145, 4-Amino-3,5-dichloro-6-(3-fluoro-4-iodophenyl)picolinic acid] | 13

Same assay, conditions: post-emergence, 504 h; Table 8; 35 g ai/ha; post-emergent; 21 d; read-out: Visual Growth Reduction (%) 21 Days After Application LAMSS

Row | Compound | pest or weed control at 35 g/ha [%]
17 | Nc1cc(-c2cc(F)c(Br)cc2F)nc(C(=O)O)c1Cl [Compound 3] | 95 to 100
18 | COC(=O)c1nc(-c2ccc(I)c(F)c2)nc(N)c1OC [Compound 27, Methyl 6-amino-2-(3-fluoro-4-iodophenyl)-5-methoxypyrimidine-4-carboxylate] | 85 to 94
19 | COc1c(N)nc(-c2ccc(I)c(F)c2)nc1C(=O)O [Compound 37, 6-Amino-2-(3-fluoro-4-iodophenyl)-5-methoxypyrimidine-4-carboxylic acid] | 85 to 94
20 | Nc1c(Cl)c(C(=O)O)nc(-c2ccc(Br)c(F)c2)c1Cl [Compound 43, 4-Amino-6-(4-bromo-3-fluorophenyl)-3,5-dichloropicolinic acid] | 85 to 94
21 | COC(=O)c1nc(-c2ccc(I)c(F)c2)c(C)c(N)c1Cl [Compound 79, Methyl 4-amino-3-chloro-6-(3-fluoro-4-iodophenyl)-5-methylpicolinate] | 60 to 74
22 | Nc1cc(-c2ccc(I)cc2F)nc(C(=O)O)c1Cl [Compound 124] | 95 to 100
23 | COC(=O)c1nc(-c2ccc(C#N)c(F)c2)c(F)c(N)c1Cl [Compound 135, methyl 4-amino-3-chloro-6-(4-cyano-3-fluorophenyl)-5-fluoropicolinate] | 75 to 84
24 | Nc1c(Cl)c(C(=O)O)nc(-c2ccc(I)c(F)c2)c1Cl [Compound 145, 4-Amino-3,5-dichloro-6-(3-fluoro-4-iodophenyl)picolinic acid] | 95 to 100

Same assay, conditions: post-emergence, 504 h; Table 8; 70 g ai/ha; post-emergent; 21 d; read-out: Visual Growth Reduction (%) 21 Days After Application LAMSS

Row | Compound | pest or weed control at 70 g/ha [%]
25 | Nc1cc(-c2cc(F)c(Br)cc2F)nc(C(=O)O)c1Cl [Compound 3] | 95 to 100
26 | COC(=O)c1nc(-c2ccc(I)c(F)c2)nc(N)c1OC [Compound 27, Methyl 6-amino-2-(3-fluoro-4-iodophenyl)-5-methoxypyrimidine-4-carboxylate] | 85 to 94
27 | COc1c(N)nc(-c2ccc(I)c(F)c2)nc1C(=O)O [Compound 37, 6-Amino-2-(3-fluoro-4-iodophenyl)-5-methoxypyrimidine-4-carboxylic acid] | 95 to 100
28 | Nc1c(Cl)c(C(=O)O)nc(-c2ccc(Br)c(F)c2)c1Cl [Compound 43, 4-Amino-6-(4-bromo-3-fluorophenyl)-3,5-dichloropicolinic acid] | 85 to 94
29 | COC(=O)c1nc(-c2ccc(I)c(F)c2)c(C)c(N)c1Cl [Compound 79, Methyl 4-amino-3-chloro-6-(3-fluoro-4-iodophenyl)-5-methylpicolinate] | 60 to 74
30 | Nc1cc(-c2ccc(I)cc2F)nc(C(=O)O)c1Cl [Compound 124] | 95 to 100
31 | COC(=O)c1nc(-c2ccc(C#N)c(F)c2)c(F)c(N)c1Cl [Compound 135, methyl 4-amino-3-chloro-6-(4-cyano-3-fluorophenyl)-5-fluoropicolinate] | 85 to 94
32 | Nc1c(Cl)c(C(=O)O)nc(-c2ccc(I)c(F)c2)c1Cl [Compound 145, 4-Amino-3,5-dichloro-6-(3-fluoro-4-iodophenyl)picolinic acid] | 95 to 100

Same assay, conditions: post-emergence, 504 h; Table 8; 140 g ai/ha; post-emergent; 21 d; read-out: Visual Growth Reduction (%) 21 Days After Application LAMSS

Row | Compound | pest or weed control at 140 g/ha [%]
33 | COC(=O)c1nc(-c2ccc(C#N)c(F)c2)c(F)c(N)c1Cl [Compound 135, methyl 4-amino-3-chloro-6-(4-cyano-3-fluorophenyl)-5-fluoropicolinate] | 85 to 94
34 | Nc1c(Cl)c(C(=O)O)nc(-c2ccc(I)c(F)c2)c1Cl [Compound 145, 4-Amino-3,5-dichloro-6-(3-fluoro-4-iodophenyl)picolinic acid] | 95 to 100

System: PAPRH: common poppy (Papaver rhoeas)
Test: as above
Assay type: in vivo
Conditions: Papaver rhoeas, post-emergence, 504 h; Table 8; 35 g ai/ha; post-emergent; 21 d; read-out: Visual Growth Reduction (%) 21 Days After Application PAPRH
Outline: as §1

Row | Compound | pest or weed control at 35 g/ha [%]
35 | Nc1cc(-c2cc(F)c(Br)cc2F)nc(C(=O)O)c1Cl [Compound 3] | 95 to 100
36 | COC(=O)c1nc(-c2ccc(I)c(F)c2)nc(N)c1OC [Compound 27, Methyl 6-amino-2-(3-fluoro-4-iodophenyl)-5-methoxypyrimidine-4-carboxylate] | 95 to 100
37 | COc1c(N)nc(-c2ccc(I)c(F)c2)nc1C(=O)O [Compound 37, 6-Amino-2-(3-fluoro-4-iodophenyl)-5-methoxypyrimidine-4-carboxylic acid] | 95 to 100
38 | Nc1c(Cl)c(C(=O)O)nc(-c2ccc(Br)c(F)c2)c1Cl [Compound 43, 4-Amino-6-(4-bromo-3-fluorophenyl)-3,5-dichloropicolinic acid] | 95 to 100
39 | COC(=O)c1nc(-c2ccc(I)c(F)c2)c(C)c(N)c1Cl [Compound 79, Methyl 4-amino-3-chloro-6-(3-fluoro-4-iodophenyl)-5-methylpicolinate] | 95 to 100
40 | Nc1cc(-c2ccc(I)cc2F)nc(C(=O)O)c1Cl [Compound 124] | 95 to 100
41 | COC(=O)c1nc(-c2ccc(C#N)c(F)c2)c(F)c(N)c1Cl [Compound 135, methyl 4-amino-3-chloro-6-(4-cyano-3-fluorophenyl)-5-fluoropicolinate] | 85 to 94
42 | Nc1c(Cl)c(C(=O)O)nc(-c2ccc(I)c(F)c2)c1Cl [Compound 145, 4-Amino-3,5-dichloro-6-(3-fluoro-4-iodophenyl)picolinic acid] | 95 to 100

Same assay, conditions: Papaver rhoeas, post-emergence, 504 h; Table 8; 70 g ai/ha; post-emergent; 21 d; read-out: Visual Growth Reduction (%) 21 Days After Application PAPRH

Row | Compound | pest or weed control at 70 g/ha [%]
43 | Nc1cc(-c2cc(F)c(Br)cc2F)nc(C(=O)O)c1Cl [Compound 3] | 95 to 100
44 | COC(=O)c1nc(-c2ccc(I)c(F)c2)nc(N)c1OC [Compound 27, Methyl 6-amino-2-(3-fluoro-4-iodophenyl)-5-methoxypyrimidine-4-carboxylate] | 95 to 100
45 | COc1c(N)nc(-c2ccc(I)c(F)c2)nc1C(=O)O [Compound 37, 6-Amino-2-(3-fluoro-4-iodophenyl)-5-methoxypyrimidine-4-carboxylic acid] | 95 to 100
46 | Nc1c(Cl)c(C(=O)O)nc(-c2ccc(Br)c(F)c2)c1Cl [Compound 43, 4-Amino-6-(4-bromo-3-fluorophenyl)-3,5-dichloropicolinic acid] | 95 to 100
47 | COC(=O)c1nc(-c2ccc(I)c(F)c2)c(C)c(N)c1Cl [Compound 79, Methyl 4-amino-3-chloro-6-(3-fluoro-4-iodophenyl)-5-methylpicolinate] | 95 to 100
48 | Nc1cc(-c2ccc(I)cc2F)nc(C(=O)O)c1Cl [Compound 124] | 95 to 100
49 | COC(=O)c1nc(-c2ccc(C#N)c(F)c2)c(F)c(N)c1Cl [Compound 135, methyl 4-amino-3-chloro-6-(4-cyano-3-fluorophenyl)-5-fluoropicolinate] | 85 to 94
50 | Nc1c(Cl)c(C(=O)O)nc(-c2ccc(I)c(F)c2)c1Cl [Compound 145, 4-Amino-3,5-dichloro-6-(3-fluoro-4-iodophenyl)picolinic acid] | 95 to 100

Same assay, conditions: Papaver rhoeas, post-emergence, 504 h; Table 8; 140 g ai/ha; post-emergent; 21 d; read-out: Visual Growth Reduction (%) 21 Days After Application PAPRH

Row | Compound | pest or weed control at 140 g/ha [%]
51 | COC(=O)c1nc(-c2ccc(C#N)c(F)c2)c(F)c(N)c1Cl [Compound 135, methyl 4-amino-3-chloro-6-(4-cyano-3-fluorophenyl)-5-fluoropicolinate] | 95 to 100
52 | Nc1c(Cl)c(C(=O)O)nc(-c2ccc(I)c(F)c2)c1Cl [Compound 145, 4-Amino-3,5-dichloro-6-(3-fluoro-4-iodophenyl)picolinic acid] | 95 to 100

Same assay, conditions: Table 8; dose for 50 percent growth reduction, probit analysis; 21 d

Row | Compound | GR50 PAPRH [g ai/ha]
53 | Nc1cc(-c2cc(F)c(Br)cc2F)nc(C(=O)O)c1Cl [Compound 3] | 1
54 | COC(=O)c1nc(-c2ccc(I)c(F)c2)nc(N)c1OC [Compound 27, Methyl 6-amino-2-(3-fluoro-4-iodophenyl)-5-methoxypyrimidine-4-carboxylate] | 1
55 | COc1c(N)nc(-c2ccc(I)c(F)c2)nc1C(=O)O [Compound 37, 6-Amino-2-(3-fluoro-4-iodophenyl)-5-methoxypyrimidine-4-carboxylic acid] | 1
56 | Nc1c(Cl)c(C(=O)O)nc(-c2ccc(Br)c(F)c2)c1Cl [Compound 43, 4-Amino-6-(4-bromo-3-fluorophenyl)-3,5-dichloropicolinic acid] | 1
57 | COC(=O)c1nc(-c2ccc(I)c(F)c2)c(C)c(N)c1Cl [Compound 79, Methyl 4-amino-3-chloro-6-(3-fluoro-4-iodophenyl)-5-methylpicolinate] | 1
58 | Nc1cc(-c2ccc(I)cc2F)nc(C(=O)O)c1Cl [Compound 124] | 1
59 | COC(=O)c1nc(-c2ccc(C#N)c(F)c2)c(F)c(N)c1Cl [Compound 135, methyl 4-amino-3-chloro-6-(4-cyano-3-fluorophenyl)-5-fluoropicolinate] | 1
60 | Nc1c(Cl)c(C(=O)O)nc(-c2ccc(I)c(F)c2)c1Cl [Compound 145, 4-Amino-3,5-dichloro-6-(3-fluoro-4-iodophenyl)picolinic acid] | 1

Same assay, conditions: Table 8; dose for 80 percent growth reduction, probit analysis; 21 d

Row | Compound | GR80 PAPRH [g ai/ha]
61 | Nc1cc(-c2cc(F)c(Br)cc2F)nc(C(=O)O)c1Cl [Compound 3] | 1
62 | COC(=O)c1nc(-c2ccc(I)c(F)c2)nc(N)c1OC [Compound 27, Methyl 6-amino-2-(3-fluoro-4-iodophenyl)-5-methoxypyrimidine-4-carboxylate] | 1
63 | COc1c(N)nc(-c2ccc(I)c(F)c2)nc1C(=O)O [Compound 37, 6-Amino-2-(3-fluoro-4-iodophenyl)-5-methoxypyrimidine-4-carboxylic acid] | 1
64 | Nc1c(Cl)c(C(=O)O)nc(-c2ccc(Br)c(F)c2)c1Cl [Compound 43, 4-Amino-6-(4-bromo-3-fluorophenyl)-3,5-dichloropicolinic acid] | 1
65 | COC(=O)c1nc(-c2ccc(I)c(F)c2)c(C)c(N)c1Cl [Compound 79, Methyl 4-amino-3-chloro-6-(3-fluoro-4-iodophenyl)-5-methylpicolinate] | 1
66 | Nc1cc(-c2ccc(I)cc2F)nc(C(=O)O)c1Cl [Compound 124] | 1
67 | COC(=O)c1nc(-c2ccc(C#N)c(F)c2)c(F)c(N)c1Cl [Compound 135, methyl 4-amino-3-chloro-6-(4-cyano-3-fluorophenyl)-5-fluoropicolinate] | 1
68 | Nc1c(Cl)c(C(=O)O)nc(-c2ccc(I)c(F)c2)c1Cl [Compound 145, 4-Amino-3,5-dichloro-6-(3-fluoro-4-iodophenyl)picolinic acid] | 1
